Assay results reported in patent US8097422B2, “Kir channel modulators” (Salk Institute for Biological Studies, priority 2007, dated 2012).

How the values were obtained:
Format in all cases: cell-based
[1] = system: Kir3 channels; experiment: patch-clamp determination of ion transport activity: activation of Kir3 channels; conditions: Kir3 activation or Kir2 inactivation
Text: (§1) It has been determined that inwardly rectifying potassium (Kir) channels are regulated directly by small molecule alcohol compounds. Three-dimensional crystallographic analysis of Kir channels has elucidated atomic details of binding pocket interactions with 2-methyl-2,4-pentanediol (MPD). MPD inhibits Kir2 channel activity and activates Kir3 channel activity. Amino acid substitutions in this hydrophobic pocket of the channel protein may alter the response to MPD. As determined by patch-clamp determinations of ion transport activity, a racemic mixture of 2-methyl-2,4-pentanediol, (±)MPD, activates Kir3 channels with an EC50 of >200 mM and inhibits Kir2 homotetramer channels with an IC50 of ˜200 mM. […] Bupivacaine inhibits Kir3.1/3.4 and Kir3.1/3.2 channels with an IC50 of ˜20-40 micromolar.
(§2) The following also were observed. Maximal activation of Kir3 channels by 100 mM (±)MPD is 280% that of 100 mM EtOH. Maximal activation of Kir3 channels by 100 mM R(−)2 methyl-2,4-pentanediol is 60% that of 100 mM (±)MPD. Maximal activation of Kir3 channels by 100 mM 3-methyl-1,3,5-pentanetriol is 70% that of 100 mM (±)MPD. Maximal activation of Kir3 channels by 100 mM 2,5-dimethyl-1,2,6-hexanetriol is 70% that of 100 mM (±)MPD. Maximal activation of Kir3 channels by 100 mM (±) 2,4-pentanediol is 50% that of 100 mM (±)MPD.

[2] = target: T1, Kir3 channels (Mus musculus, UniProt P48542); experiment: as above; conditions: read-out: Maximal activation of Kir3 channels relative to that of 100 mM EtOH
T1 construct: other: patch-clamp; other: 100 mM
T1 sequence (P48542 1-425): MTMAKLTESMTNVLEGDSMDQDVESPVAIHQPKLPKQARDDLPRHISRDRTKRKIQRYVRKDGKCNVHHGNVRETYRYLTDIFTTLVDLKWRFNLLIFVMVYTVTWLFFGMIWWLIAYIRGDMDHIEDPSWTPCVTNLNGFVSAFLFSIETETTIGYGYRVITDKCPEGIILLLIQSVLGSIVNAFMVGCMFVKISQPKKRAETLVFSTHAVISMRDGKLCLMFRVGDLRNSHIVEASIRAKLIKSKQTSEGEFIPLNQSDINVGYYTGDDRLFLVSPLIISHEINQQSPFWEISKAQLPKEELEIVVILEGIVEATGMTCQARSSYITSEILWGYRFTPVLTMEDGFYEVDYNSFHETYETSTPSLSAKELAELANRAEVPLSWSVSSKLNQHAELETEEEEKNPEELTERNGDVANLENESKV
Text: as §1, §2

[3] = system: GIRK2 PIP S148T mutant channel; experiment: whole-cell patch clamp, GIRK2 PIP S148T mutant channel; conditions: GIRK2 PIP S148T compared with GIRK2 PIP L257W
Experimental: (§3) Point mutations were introduced by Quickchange site directed mutagenesis kit (Stratagene). The GIRK2 PIP mutant was generated by overlap-PCR method. […] Mutations were confirmed by automated DNA sequencing methods. […] Cells were plated in a 12 well dish, and were transiently transfected using Lipofectamine 2000 (Invitrogen). After 12-24 hrs, cells were re-plated to 12-mm glass coverslips coated with poly-D-[…] microgram/ml). […] The cells were co-transfected with 0.04 micrograms of eYFP cDNA to identify transfected cells. 0.8 micrograms of Muscarinic Receptor 2 (M2R) was also co-transfected for experiments with Carbachol. […] Whole-cell patch clamp recordings were performed 24-72 hrs after transfection. […] Alcohols, 5 μM Carbachol, and 1 mM BaCl2 (diluted in 20K solution) were applied from outside the cell with the rapid perfusion system (Warner Instruments). […] Current-voltage relationships also were obtained from the ramp protocol. This protocol was used to measure the inwardly rectifying currents at -100 mV and to ensure stability of recording by monitoring a reversal potential and inward rectification. […] Alcohol and Carbachol modulated currents were measured by averaging two consecutive current readings upon reaching steady state, and subtracting the averaged basal current before and after the application of modulator.

[4] = target: T2, Kir2 homotetramer channels (Mus musculus, UniProt P35561); experiment: patch-clamp determination of ion transport activity: inhibition of Kir2 channels (Kir2.1 expressed in HEK293 cells); conditions: as stated in the detailed description; read-out: IC50 for inhibition of Kir 2.1 channels
T2 construct: expressed in transfected cells; host or cells: HEK293
Text: as §1
The effect of MPD on Kir2 channel activity was analyzed further. […] The fractional current remaining is plotted as a function of MPD concentration. The response for each cell was fit with the Hill equation. The average IC50 and Hill coefficients are shown (n=6).

[5] = target: T3, GIRK2 Y349W mutant channel (Mus musculus, UniProt P48542, Y349W); experiment: whole-cell patch clamp, GIRK2 Y349W mutant channel; conditions: n=10
T3 construct: expressed in transfected cells; host or cells: HEK293T
Experimental: as §3

T3 sequence (P48542 whole entry Y349W): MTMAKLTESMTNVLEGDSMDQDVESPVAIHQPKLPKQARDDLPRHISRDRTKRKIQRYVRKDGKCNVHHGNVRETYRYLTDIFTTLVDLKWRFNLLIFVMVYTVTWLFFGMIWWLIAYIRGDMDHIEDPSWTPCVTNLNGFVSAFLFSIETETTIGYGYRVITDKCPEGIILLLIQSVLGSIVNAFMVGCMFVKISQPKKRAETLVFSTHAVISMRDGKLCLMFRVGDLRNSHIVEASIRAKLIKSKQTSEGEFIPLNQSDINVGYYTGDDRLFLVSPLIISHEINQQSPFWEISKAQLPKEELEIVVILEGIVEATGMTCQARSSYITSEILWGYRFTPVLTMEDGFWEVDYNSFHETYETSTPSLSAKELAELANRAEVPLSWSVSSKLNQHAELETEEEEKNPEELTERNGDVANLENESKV
T2 sequence (P35561 whole entry): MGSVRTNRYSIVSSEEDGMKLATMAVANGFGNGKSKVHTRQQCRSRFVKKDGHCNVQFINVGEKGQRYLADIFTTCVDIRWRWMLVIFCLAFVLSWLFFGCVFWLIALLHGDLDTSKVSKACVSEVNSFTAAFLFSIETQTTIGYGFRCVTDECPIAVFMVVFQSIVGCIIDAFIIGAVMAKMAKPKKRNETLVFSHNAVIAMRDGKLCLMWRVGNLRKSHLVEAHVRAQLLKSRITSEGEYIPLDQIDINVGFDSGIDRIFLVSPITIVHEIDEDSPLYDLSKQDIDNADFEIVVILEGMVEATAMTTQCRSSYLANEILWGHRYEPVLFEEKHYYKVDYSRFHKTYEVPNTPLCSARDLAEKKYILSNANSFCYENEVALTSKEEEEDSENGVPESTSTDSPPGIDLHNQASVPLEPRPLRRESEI

| Emax at 100000 µM [2] | IC50 [4] | 1-PrOH activated current, GIRK2 Y349W, percentage change from basal current [5] | Carbachol activated current, GIRK2 Y349W, percentage change from basal current ([5]; 5 μM Carbachol) | Molecule | time course of inactivation or activation after application [1] | change in sensitivity to inhibition when Ser at the P-loop is mutated to Thr [3] |
| --- | --- | --- | --- | --- | --- | --- |
| 280% | ~100 mM | – | – | CC(O)CC(C)(C)O (racemic) [MPD, 2-methyl-2,4-pentanediol] | within seconds | ~20 fold |
| – | – | 256±25% | – | 1-propanol [1-PrOH] | – | ~100 fold |
| – | – | – | 56±5 | C[N+](C)(C)CCOC(N)=O [Carbachol] | – | – |
